# Measured values: patent US11433053B2, “LSD1 inhibitor and preparation method and application thereof” (CSPC ZHONGQI PHARMACEUTICAL TECHNOLOGY (SHIJIAZHUANG) CO., …, priority 2017, dated 2022)
# Experiment: Pharmacokinetic evaluation in C57BL/6 mice after intravenous and oral administration
# Format: in vivo
# Settings: male, mouse, plasma; for Cmax / clearance / half-life / Vd: IV 1 mg/kg; for Cmax: oral 2 mg/kg, route of Cmax not stated, read-out: max concentration Cmax; for clearance: read-out: clearance CL; for half-life: read-out: half-life T1/2 (IV, h) (converted); for Vd: read-out: volumes of distribution Vdss; for bioavailability: PO 2 mg/kg vs IV 1 mg/kg, read-out: bioavailability F (%); for AUC(0-t): PO 2 mg/kg, read-out: the area under the plasma concentration-time curve AUC0-last PO
# Description: Experimental purposes: To test the pharmacokinetics of compounds in C57BL/6 mice
# C57BL/6 mice (male, 7-9 weeks old, Shanghai Slack)
# Test the pharmacokinetics characteristics of rodents after intravenous and oral administration in accordance with standard protocols, and the candidate compound was formulated into a clear solution in the experiment. The mice were administered by intravenous injection and orally once. The intravenous and oral vehicle is a 10% aqueous solution of hydroxypropyl β-cyclodextrin or a physiological saline solution. Six male C57BL/6 mice were employed in this assay, three of them were administered intravenously at a dose of 1 mg/kg, plasma samples were collected at 0 h (before administration) and 0.0833, 0.25, 0.5, 1, 2, 4, 7, 24 h after administration. Another three mice were administered by oral gavage at a dose of 2 mg/kg, plasma samples were collected at 0 h (before administration) and 0.5, 1, 2, 3, 4, 6, 24 h after administration. Collect whole blood samples within 24 hours, centrifuge at 3000 g for 15 minutes, separate the supernatant to obtain a plasma sample, 4 times volume of the internal standard acetonitrile solution was added to precipitate the protein. Centrifuge the supernatant and add an equal volume of water and centrifuge to take the supernatant. LC-MS/MS was used to quantitatively analyze plasma concentrations and calculate pharmacokinetic parameters such as max concentration (Cmax), clearance (CL), half-life (T1/2), volumes of distribution (Vdss), the area under the plasma concentration-time curve (AUC0-last), bioavailability (F), etc.
Cmax [ng/mL],clearance [mL/min/kg],half-life [h],Vd [L/kg],bioavailability [%],AUC(0-t) [µM·h],SMILES
25.3,92,4.5,28.5,21.5,0.17,N[C@H]1CC[C@H](c2nc(C3(CN[C@@H]4C[C@H]4c4ccccc4)CC3)no2)CC1 [Example 144]
11.9,108,11.7,81.8,9.1,0.0654,N[C@H]1CC[C@@H](c2nc(C3(CN[C@@H]4C[C@H]4c4ccccc4)CC3)no2)CC1 [Example 145]
49.5,104,2.4,20.9,36.7,0.271,N[C@H]1CC[C@H](c2cc(C3(CN[C@@H]4C[C@H]4c4ccccc4)CC3)no2)CC1 [Example 241]
